According to patent US20230287138A1, “PROTEIN-DRUG CONJUGATES COMPRISING CAMPTOTHECIN ANALOGS AND METHODS OF USE THEREOF” (Regneron Pharmaceuticals, Inc., priority 2022, published 2023):
Counter-ions that a name gives are not always drawn. Like-named read-outs stand apart in the source and are kept apart here. Where a SMILES comes first, the peptide text is derived from it. The star is where a group is joined. Exatecan = CC[C@@]1(O)C(=O)OCc2c1cc1n(c2=O)Cc2c-1nc1cc(F)c(C)c3c1c2[C@@H](N*)CC3; Acetyl(cyclooct-2-yn-1-ylO) = O=C(COC1C#CCCCCC1)*

System: HCT-15
Experiment: HCT-15 data of payloads and linker-payloads (EC50, with or without verapamil)
Assay type: cell-based
[1] = Homo sapiens, linker-payload, HCT-15 cells, read-out: HCT-15 EC50
[2] = Homo sapiens, payload, HCT-15 cells, no verapamil, read-out: HCT-15 EC50
[3] = payload, HCT-15 cells plus verapamil, read-out: HCT-15 + verapamil EC50

SMILES | EC50 [1] [nM] | EC50 [2] [nM] | EC50 [3] [nM]
CC[C@@]1(O)C(=O)OCc2c1cc1n(c2=O)Cc2c-1nc1cc(F)c(C)c3c1c2[C@@H](NC(=O)OCc1ccc(NC(=O)[C@H](CCCNC(N)=O)NC(=O)[C@@H](NC(=O)CCOCCOCCOCCOCCNC(=O)COC2C#CCCCCC2)C(C)C)cc1)CC3 (stereo partly drawn) [LP1, {4-[(2S)-5-(Carbamoylamino)-2-[(2S)-2-{1-[2-(cyclooct-2-yn-1-yloxy)acetamido]-3,6,9,12-tetraoxapentadecan-15-amido}-3-methylbutanamido]pentanamido]phenyl}methyl N-[(10S,23S)-10-ethyl-18-fluoro-10-hydroxy-19-methyl-5,9-dioxo-8-oxa-4,15-diazahexacyclo[14.7.1.0^2,^14.0^4,^13.0^6,^11.0^20,^24]tetracosa-1,6(11),12,14,16,18,20(24)-heptaen-23-yl]carbamate] | 289 | – | –
CC[C@@]1(O)C(=O)OCc2c1cc1n(c2=O)Cc2c-1nc1cc(F)c(C)c3c1c2[C@@H](NC(=O)OCc1ccc(NC(=O)[C@H](CCCNC(N)=O)NC(=O)[C@@H](NC(=O)CCOCCOCCOCCOCCNC(=O)CCC(=O)N2Cc4ccccc4C#Cc4ccccc42)C(C)C)cc1)CC3 [LP2] | 145 | – | –
CC[C@@]1(O)C(=O)OCc2c1cc1n(c2=O)Cc2c-1nc1cc(F)c(C)c3c1c2[C@@H](NC(=O)OCc1ccc(O[C@@H]2O[C@H](C(=O)O)[C@@H](O)[C@H](O)[C@H]2O)c(C(=O)NCCNC(=O)COC2C#CCCCCC2)c1)CC3 (stereo partly drawn) [LP3, (2S,3S,4S,5R,6S)-6-[2-({2-[2-(Cyclooct-2-yn-1-yloxy)acetamido]ethyl}carbamoyl)-4-[({[(10S,23S)-10-ethyl-18-fluoro-10-hydroxy-19-methyl-5,9-dioxo-8-oxa-4,15-diazahexacyclo[14.7.1.0^2,^14.0^4,^13.0^6,^11.0^20,^24]tetracosa-1,6(11),12,14,16,18,20(24)-heptaen-23-yl]carbamoyl}oxy)methyl]phenoxy]-3,4,5-trihydroxyoxane-2-carboxylic acid] | 457 | – | –
CC[C@@]1(O)C(=O)OCc2c1cc1n(c2=O)Cc2c-1nc1cc(F)c(C)c3c1c2[C@@H](NC(=O)OCc1ccc(O[C@@H]2O[C@H](CO)[C@@H](O)[C@H](O)[C@H]2O)c(C(=O)NCCNC(=O)COC2C#CCCCCC2)c1)CC3 (stereo partly drawn) [LP4, [3-({2-[2-(Cyclooct-2-yn-1-yloxy)acetamido]ethyl}carbamoyl)-4-{[(2S,3R,4S,5S,6R)-3,4,5-trihydroxy-6-(hydroxymethyl)oxan-2-yl]oxy}phenyl]methyl N-[(10S,23S)-10-ethyl-18-fluoro-10-hydroxy-19-methyl-5,9-dioxo-8-oxa-4,15-diazahexacyclo[14.7.1.0^2,^14.0^4,^13.0^6,^11.0^20,^24]tetracosa-1,6(11),12,14,16,18,20(24)-heptaen-23-yl]carbamate] | 363 | – | –
CC[C@@]1(O)C(=O)OCc2c1cc1n(c2=O)Cc2c-1nc1cc(F)c(C)c3c1c2[C@@H](NC(=O)CNC(=O)OCc1ccc(NC(=O)[C@H](CCCNC(N)=O)NC(=O)[C@@H](NC(=O)CCOCCOCCOCCOCCNC(=O)COC2C#CCCCCC2)C(C)C)cc1)CC3 (stereo partly drawn) [LP5, {4-[(2S)-5-(Carbamoylamino)-2-[(2S)-2-{1-[2-(cyclooct-2-yn-1-yloxy)acetamido]-3,6,9,12-tetraoxapentadecan-15-amido}-3-methylbutanamido]pentanamido]phenyl}methyl N-({[(10S,23S)-10-ethyl-18-fluoro-10-hydroxy-19-methyl-5,9-dioxo-8-oxa-4,15-diazahexacyclo[14.7.1.0^2,^14.0^4,^13.0^6,^11.0^20,^24]tetracosa-1,6(11),12,14,16,18,20(24)-heptaen-23-yl]carbamoyl}methyl)carbamate] | > 1000 | – | –
CC[C@@]1(O)C(=O)OCc2c1cc1n(c2=O)Cc2c-1nc1cc(F)c(C)c3c1c2[C@@H](NC(=O)CNC(=O)CNC(=O)CNC(=O)CNC(=O)COC1C#CCCCCC1)CC3 (stereo partly drawn) [LP8, 2-(2-{2-[2-(Cyclooct-2-yn-1-yloxy)acetamido]acetamido}acetamido)-N-({[(10S,23S)-10-ethyl-18-fluoro-10-hydroxy-19-methyl-5,9-dioxo-8-oxa-4,15-diazahexacyclo[14.7.1.0^2,^14.0^4,^13.0^6,^11.0^20,^24]tetracosa-1,6(11),12,14,16,18,20(24)-heptaen-23-yl]carbamoyl}methyl)acetamide] ({Acetyl(cyclooct-2-yn-1-ylO)}-GGGG-Exatecan) | 837 | – | –
CC[C@@]1(O)C(=O)OCc2c1cc1n(c2=O)Cc2c-1nc1cc(F)c(C)c3c1c2[C@@H](NC(=O)[C@H](CCC(=O)O)NC(=O)OCc1ccc(NC(=O)[C@H](CCCNC(N)=O)NC(=O)[C@@H](NC(=O)CCOCCOCCOCCOCCNC(=O)COC2C#CCCCCC2)C(C)C)cc1)CC3 (stereo partly drawn) [LP9, (4S)-4-{[({4-[(2S)-5-(carbamoylamino)-2-[(2S)-2-{1-[2-(cyclooct-2-yn-1-yloxy)acetamido]-3,6,9,12-tetraoxapentadecan-15-amido}-3-methylbutanamido]pentanamido]phenyl}methoxy)carbonyl]amino}-4-{[(10S,23S)-10-ethyl-18-fluoro-10-hydroxy-19-methyl-5,9-dioxo-8-oxa-4,15-diazahexacyclo[14.7.1.0^2,^14.0^4,^13.0^6,^11.0^20,^24]tetracosa-1,6(11),12,14,16,18,20(24)-heptaen-23-yl]carbamoyl}butanoic acid] | 722 | – | –
CC[C@@]1(O)C(=O)OCc2c1cc1n(c2=O)Cc2c-1nc1cc(F)c(C)c3c1c2[C@@H](NC(=O)[C@H](Cc1ccccc1)NC(=O)OCc1ccc(NC(=O)[C@H](CCCNC(N)=O)NC(=O)[C@@H](NC(=O)CCOCCOCCOCCOCCNC(=O)COC2C#CCCCCC2)C(C)C)cc1)CC3 (stereo partly drawn) [LP10, {4-[(2S)-5-(carbamoylamino)-2-[(2S)-2-{1-[2-(cyclooct-2-yn-1-yloxy)acetamido]-3,6,9,12-tetraoxapentadecan-15-amido}-3-methylbutanamido]pentanamido]phenyl}methyl N-[(1 S)-1-{[(10S,23S)-10-ethyl-18-fluoro-10-hydroxy-19-methyl-5,9-dioxo-8-oxa-4,15-diazahexacyclo[14.7.1.0^2,^14.0^4,^13.0^6,^11.0^20,^24]tetracosa-1,6(11),12,14,16,18,20(24)-heptaen-23-yl]carbamoyl}-2-phenylethyl]carbamate] | 852 | – | –
CC[C@@]1(O)C(=O)OCc2c1cc1n(c2=O)Cc2c-1nc1cc(F)c(C)c3c1c2[C@@H](NC(=O)[C@@H](N)CCCCNC(=O)OCc1ccc(NC(=O)[C@H](CCCNC(N)=O)NC(=O)[C@@H](NC(=O)CCOCCOCCOCCOCCNC(=O)COC2C#CCCCCC2)C(C)C)cc1)CC3 (stereo partly drawn) [LP11, {4-[(2S)-5-(carbamoylamino)-2-[(2S)-2-{1-[2-(cyclooct-2-yn-1-yloxy)acetamido]-3,6,9,12-tetraoxapentadecan-15-amido}-3-methylbutanamido]pentanamido]phenyl}methyl N-[(5S)-5-amino-5-{[(10S,23S)-10-ethyl-18-fluoro-10-hydroxy-19-methyl-5,9-dioxo-8-oxa-4,15-diazahexacyclo[14.7.1.0^2,^14.0^4,^13.0^6,^11.0^20,^24]tetracosa-1,6(11),12,14,16,18,20(24)-heptaen-23-yl]carbamoyl}pentyl]carbamate] | 208 | – | –
CC[C@@]1(O)C(=O)OCc2c1cc1n(c2=O)Cc2c-1nc1cc(F)c(C)c3c1c2[C@@H](NC(=O)COCNC(=O)OCc1ccc(NC(=O)[C@H](C)NC(=O)[C@@H](NC(=O)CCOCCOCCOCCOCCNC(=O)COC2C#CCCCCC2)C(C)C)cc1)CC3 (stereo partly drawn) [LP15, {4-[(2S)-2-[(2S)-2-{1-[2-(cyclooct-2-yn-1-yloxy)acetamido]-3,6,9,12-tetraoxapentadecan-15-amido}-3-methylbutanamido]propanamido]phenyl}methyl N-[({[(10S,23S)-10-ethyl-18-fluoro-10-hydroxy-19-methyl-5,9-dioxo-8-oxa-4,15-diazahexacyclo[14.7.1.0^2,^14.0^4,^13.0^6,^11.0^20,^24]tetracosa-1,6(11),12,14,16,18,20(24)-heptaen-23-yl]carbamoyl}methoxy)methyl]carbamate] | 96.9 | – | –
CC[C@@]1(O)C(=O)OCc2c1cc1n(c2=O)Cc2c-1nc1cc(F)c(C)c3c1c2[C@@H](NC(=O)OCc1ccc(O[C@@H]2O[C@H](CO)[C@@H](O)[C@H](O)[C@H]2O)c(C(=O)NCCOCCOCCNC(=O)CCOCC(COCCC(=O)NCCOCCOCCNC(=O)c2cc(COC(=O)N[C@H]4CCc5c(C)c(F)cc6nc7c(c4c56)Cn4c-7cc5c(c4=O)COC(=O)[C@]5(O)CC)ccc2O[C@@H]2O[C@H](CO)[C@@H](O)[C@H](O)[C@H]2O)NC(=O)CCOCCOCCNC(=O)COC2C#CCCCCC2)c1)CC3 (stereo partly shown) [LP16] | 140 | – | –
CC[C@@]1(O)C(=O)OCc2c1cc1n(c2=O)Cc2c-1nc1cc(F)c(C)c3c1c2[C@@H](N)CC3 [P1, Exatecan mesylate, reference compound] | – | 1.22 | 1.13
CC[C@@]1(O)C(=O)OCc2c1cc1n(c2=O)Cc2c-1nc1cc(F)c(C)c3c1c2[C@@H](NC(=O)CN)CC3 [P2, 2-Amino-N-[(10S,23S)-10-ethyl-18-fluoro-10-hydroxy-19-methyl-5,9-dioxo-8-oxa-4,15-diazahexacyclo[[14.7.1.0^2,^14.0^4,^13.0^6,^11.0^20,^24]]tetracosa-1,6(11),12,14,16,18,20(24)-heptaen-23-yl]acetamide] | – | 61.9 | 14.3
CC[C@@]1(O)C(=O)OCc2c1cc1n(c2=O)Cc2c-1nc1cc(F)c(C)c3c1c2[C@@H](NC(=O)[C@@H](N)CCC(=O)O)CC3 [P3, (4S)-4-amino-4-{[(10S,23S)-10-ethyl-18-fluoro-10-hydroxy-19-methyl-5,9-dioxo-8-oxa-4,15-diazahexacyclo[[14.7.1.0^2,^14.0^4,^13.0^6,^11.0^20,^24]]tetracosa-1,6(11),12,14,16,18,20(24)-heptaen-23-yl]carbamoyl}butanoic acid] | – | 610 | 596
CC[C@@]1(O)C(=O)OCc2c1cc1n(c2=O)Cc2c-1nc1cc(F)c(C)c3c1c2[C@@H](NC(=O)[C@@H](N)CCCCN)CC3 [P4, (2S)-2,6-diamino-N-[(10S,23S)-10-ethyl-18-fluoro-10-hydroxy-19-methyl-5,9-dioxo-8-oxa-4,15-diazahexacyclo[[14.7.1.0^2,^14.0^4,^13.0^6,^11.0^20,^24]]tetracosa-1,6(11),12,14,16,18,20(24)-heptaen-23-yl]hexanamide] | – | 447 | 581
